Results from PubChem BioAssay AID1918991 (Molecular Pharmacology Branch, DTP, NCI, 2023).

Test system: 186277-243-T-J2-PDC complex spheroid growth
Assay: Anticancer human tumor 186277-243-T-J2-PDC patient-derived colon adenocarcinoma cell line growth inhibition [AhR]
Details: for IC50: curve of first compound; for viability, T/C: stronger effect = lower value
Outline: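 Spheroids combined tumor cells with HUVEC endothelial cells and human MSCs as stroma. AhR antagonists were paired with standard or investigational drugs, each dosed in half-log steps down from near clinical Cmax, or from 10 microM where Cmax was unknown.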

[1] = second compound 0.1 µM, first compound 0.0316 µM
[2] = second compound 0.1 µM, first compound 0.1 µM
[3] = second compound 0.316 µM, first compound 0.0316 µM
[4] = second compound 0.316 µM, first compound 0.1 µM
[5] = second compound 1 µM, first compound 0.0316 µM
[6] = second compound 1 µM, first compound 0.1 µM
[7] = second compound 3.16 µM, first compound 0.0316 µM
[8] = second compound 3.16 µM, first compound 0.1 µM
[9] = second compound 10 µM, first compound 0.0316 µM
[10] = second compound 10 µM, first compound 0.1 µM
[11] = second compound 0.1 µM, first compound 0.316 µM
[12] = second compound 0.1 µM, first compound 1 µM
[13] = second compound 0.1 µM, first compound 3.16 µM
[14] = second compound 0.1 µM, first compound 10 µM
[15] = second compound 0.316 µM, first compound 0.316 µM
[16] = second compound 0.316 µM, first compound 1 µM
[17] = second compound 0.316 µM, first compound 3.16 µM
[18] = second compound 0.316 µM, first compound 10 µM
[19] = second compound 1 µM, first compound 0.316 µM
[20] = second compound 1 µM, first compound 1 µM
[21] = second compound 1 µM, first compound 3.16 µM
[22] = second compound 1 µM, first compound 10 µM
[23] = second compound 3.16 µM, first compound 0.316 µM
[24] = second compound 3.16 µM, first compound 1 µM
[25] = second compound 3.16 µM, first compound 3.16 µM
[26] = second compound 3.16 µM, first compound 10 µM
[27] = second compound 10 µM, first compound 0.316 µM
[28] = second compound 10 µM, first compound 1 µM
[29] = second compound 10 µM, first compound 3.16 µM
[30] = second compound 10 µM, first compound 10 µM
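Further: spheroids exposed to compounds for seven days before the viability read.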
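Wherever viability, T/C is given: luminescent signal used as a stand-in for viable cell amount; 100% = DMSO vehicle control wells.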

CC[C@@]1(O)C(=O)OCc2c1cc1n(c2=O)Cc2cc3c(CN(C)C)c(O)ccc3nc2-1 + Cc1cncc(-c2nc(NCCc3c[nH]c4ccccc34)c3ncn(C(C)C)c3n2)c1
IC50 (second compound 0.1 µM): > 100 nM
IC50 (second compound 0.316 µM): > 100 nM
IC50 (second compound 1 µM): > 100 nM
IC50 (second compound 3.16 µM): > 100 nM
IC50 (second compound 10 µM): 1.33 nM
viability, T/C (second compound 0.1 µM, first compound 0.000316 µM): 98.8%
viability, T/C (second compound 0.1 µM, first compound 0.001 µM): 96.3%
viability, T/C (second compound 0.1 µM, first compound 0.00316 µM): 118%
viability, T/C (second compound 0.1 µM, first compound 0.01 µM): 112%
viability, T/C [1]: 92.6%
viability, T/C [2]: 62%
viability, T/C (second compound 0.316 µM, first compound 0.000316 µM): 107%
viability, T/C (second compound 0.316 µM, first compound 0.001 µM): 101%
viability, T/C (second compound 0.316 µM, first compound 0.00316 µM): 104%
viability, T/C (second compound 0.316 µM, first compound 0.01 µM): 135%
viability, T/C [3]: 86.2%
viability, T/C [4]: 64.8%
viability, T/C (second compound 1 µM, first compound 0.000316 µM): 99.6%
viability, T/C (second compound 1 µM, first compound 0.001 µM): 108%
viability, T/C (second compound 1 µM, first compound 0.00316 µM): 125%
viability, T/C (second compound 1 µM, first compound 0.01 µM): 140%
viability, T/C [5]: 85.2%
viability, T/C [6]: 69.4%
viability, T/C (second compound 3.16 µM, first compound 0.000316 µM): 118%
viability, T/C (second compound 3.16 µM, first compound 0.001 µM): 109%
viability, T/C (second compound 3.16 µM, first compound 0.00316 µM): 145%
viability, T/C (second compound 3.16 µM, first compound 0.01 µM): 135%
viability, T/C [7]: 87.4%
viability, T/C [8]: 68.9%
viability, T/C (second compound 10 µM, first compound 0.000316 µM): 49.5%
viability, T/C (second compound 10 µM, first compound 0.001 µM): 57.9%
viability, T/C (second compound 10 µM, first compound 0.00316 µM): 38.7%
viability, T/C (second compound 10 µM, first compound 0.01 µM): 28.6%
viability, T/C [9]: 31%
viability, T/C [10]: 39%

COc1cc(C2c3cc4c(cc3C(OC3OC5COC(C)OC5C(O)C3O)C3COC(=O)C23)OCO4)cc(OC)c1O (stereo not given) + Cc1cncc(-c2nc(NCCc3c[nH]c4ccccc34)c3ncn(C(C)C)c3n2)c1
IC50 (second compound 0.1 µM): 2130 nM
IC50 (second compound 0.316 µM): 1440 nM
IC50 (second compound 1 µM): 1600 nM
IC50 (second compound 3.16 µM): 1450 nM
IC50 (second compound 10 µM): 48.5 nM
viability, T/C [1]: 119%
viability, T/C [2]: 111%
viability, T/C [11]: 113%
viability, T/C [12]: 58.7%
viability, T/C [13]: 52%
viability, T/C [14]: 21.9%
viability, T/C [3]: 119%
viability, T/C [4]: 124%
viability, T/C [15]: 107%
viability, T/C [16]: 53.4%
viability, T/C [17]: 48%
viability, T/C [18]: 21.1%
viability, T/C [5]: 110%
viability, T/C [6]: 149%
viability, T/C [19]: 99.8%
viability, T/C [20]: 59.5%
viability, T/C [21]: 44.6%
viability, T/C [22]: 19.9%
viability, T/C [7]: 127%
viability, T/C [8]: 147%
viability, T/C [23]: 89.3%
viability, T/C [24]: 59.4%
viability, T/C [25]: 42.7%
viability, T/C [26]: 19.9%
viability, T/C [9]: 55%
viability, T/C [10]: 44.5%
viability, T/C [27]: 20.8%
viability, T/C [28]: 24.3%
viability, T/C [29]: 22.9%
viability, T/C [30]: 9.36%

Nc1ccn(C2OC(CO)C(O)C2(F)F)c(=O)n1 (stereo not given) + Cc1cncc(-c2nc(NCCc3c[nH]c4ccccc34)c3ncn(C(C)C)c3n2)c1
IC50 (second compound 0.1 µM): < 31.6 nM
IC50 (second compound 0.316 µM): < 31.6 nM
IC50 (second compound 1 µM): < 31.6 nM
IC50 (second compound 3.16 µM): < 31.6 nM
IC50 (second compound 10 µM): < 31.6 nM
viability, T/C [1]: 7.18%
viability, T/C [2]: 8.73%
viability, T/C [11]: 9.08%
viability, T/C [12]: 7.46%
viability, T/C [13]: 9.53%
viability, T/C [14]: 8.43%
viability, T/C [3]: 7.58%
viability, T/C [4]: 7.59%
viability, T/C [15]: 8.77%
viability, T/C [16]: 7.4%
viability, T/C [17]: 9.8%
viability, T/C [18]: 10.2%
viability, T/C [5]: 8.42%
viability, T/C [6]: 8.73%
viability, T/C [19]: 8.67%
viability, T/C [20]: 8.54%
viability, T/C [21]: 10.4%
viability, T/C [22]: 9.89%
viability, T/C [7]: 8.88%
viability, T/C [8]: 9.87%
viability, T/C [23]: 8.78%
viability, T/C [24]: 9.16%
viability, T/C [25]: 10.2%
viability, T/C [26]: 11.2%
viability, T/C [9]: 9.79%
viability, T/C [10]: 9.68%
viability, T/C [27]: 7.97%
viability, T/C [28]: 8.56%
viability, T/C [29]: 9.28%
viability, T/C [30]: 10.2%
